Measurements published in US8952024B2, “Herbicidal pyrimidone derivatives” (E I du Pont de Nemours and Company, priority 2009, dated 2015).

Columns and labels:
Test in all cases: Test B pre-/postemergence plant response
Format in all cases: in vivo
[1] = tested on: Surinam grass (Brachiaria decumbens)
Excerpt: (§1) Seeds of plant species selected from blackgrass (Alopecurus myosuroides), downy bromegrass (Bromus tectorum), green foxtail (Setaria viridis), Italian ryegrass (Lolium multiflorum), wheat (Triticum aestivum), wild oat (Avena fatua), deadnettle (henbit deadnettle, Lamium amplexicaule), galium (catchweed bedstraw, Galium aparine), bermudagrass (Cynodon dactylon), Surinam grass (Brachiaria decumbens), cocklebur (Xanthium strumarium), corn (Zea mays), large crabgrass (Digitaria sanguinalis), woolly cupgrass (Eriochloa villosa), giant foxtail (Setaria faberii), goosegrass (Eleusine indica), johnsongrass (Sorghum halepense), kochia (Kochia scoparia), lambsquarters (Chenopodium album), morningglory (Ipomoea coccinea), nightshade (eastern black nightshade, Solanum ptycanthum), yellow nutsedge (Cyperus esculentus), pigweed (Amaranthus retroflexus), ragweed (common ragweed, Ambrosia elatior), Russian thistle (Salsola kali), soybean (Glycine max), sunflower (common oilseed sunflower, Helianthus annuus) and velvetleaf (Abutilon theophrasti) were planted into a blend of loam soil and sand and treated preemergence with test compounds formulated in a non-phytotoxic solvent mixture which included a surfactant.
(§2) At the same time, plants selected from these crop and weed species and also winter barley (Hordeum vulgare), canarygrass (Phalaris minor), chickweed (Stellaria media) and windgrass (Apera spica-venti) were planted in pots containing Redi-Earth® planting medium (Scotts Company, 14111 Scottslawn Road, Marysville, Ohio 43041) comprising spaghnum peat moss, vermiculite, wetting agent and starter nutrients and treated with postemergence applications of some of the test chemicals formulated in the same manner. Plants ranged in height from 2 to 18 cm (1- to 4-leaf stage) for postemergence treatments.
(§3) Treated plants and controls were maintained in a greenhouse for 13 to 15 days, after which time all treated plants were visually evaluated and compared to controls. Plant response ratings, summarized in Table B, are based on a scale of 0 to 100 where 0 is no effect and 100 is complete control. A dash (-) response means no test result.

[2] = tested on: blackgrass (Alopecurus myosuroides)
Excerpt: as §1, §2, §3

[3] = tested on: cocklebur (Xanthium strumarium)
Excerpt: as §1, §2, §3

[4] = tested on: corn (Zea mays)
Excerpt: as §1, §2, §3

[5] = tested on: downy bromegrass (Bromus tectorum)
Excerpt: as §1, §2, §3

[6] = tested on: giant foxtail (Setaria faberii)
Excerpt: as §1, §2, §3

[7] = tested on: goosegrass (Eleusine indica)
Excerpt: as §1, §2, §3

[8] = tested on: green foxtail (Setaria viridis)
Excerpt: as §1, §2, §3

[9] = tested on: johnsongrass (Sorghum halepense)
Excerpt: as §1, §2, §3

[10] = tested on: kochia (Kochia scoparia)
Excerpt: as §1, §2, §3

[11] = tested on: large crabgrass (Digitaria sanguinalis)
Excerpt: as §1, §2, §3

[12] = tested on: morningglory (Ipomoea coccinea)
Excerpt: as §1, §2, §3

[13] = tested on: soybean (Glycine max)
Excerpt: as §1, §2, §3

[14] = tested on: velvetleaf (Abutilon theophrasti)
Excerpt: as §1, §2, §3

[15] = tested on: wild oat (Avena fatua)
Excerpt: as §1, §2, §3

[16] = tested on: woolly cupgrass (Eriochloa villosa)
Excerpt: as §1, §2, §3

[17] = tested on: yellow nutsedge (Cyperus esculentus)
Excerpt: as §1, §2, §3

[18] = 250 g ai/ha, Preemergence, 0 to 100 scale
[19] = Postemergence, 31 g ai/ha, scale 0 to 100 (0 no effect, 100 complete control)
[20] = Postemergence, 62 g ai/ha, scale 0 (no effect) to 100 (complete control), 13 to 15 days
[21] = Postemergence, 125 g ai/ha, visual rating after 13 to 15 days, scale 0 (no effect) to 100 (complete control)
[22] = Postemergence, 250 g ai/ha, scale 0 to 100
[23] = Preemergence, 31 g ai/ha, scale 0 to 100 (0 no effect, 100 complete control)
[24] = Preemergence, 62 g ai/ha, scale 0 to 100, 0 no effect, 100 complete control
[25] = Preemergence, 125 g ai/ha, 0 to 100 scale

O=C1CCCC(O)=C1C(=O)c1cnc(-c2ccccc2)n(-c2ccc(F)cc2)c1=O [Compound 24]
0: Plant response rating, Blackgrass [2, 23] | Plant response rating, Blackgrass [2, 24] | Blackgrass plant response rating [2, 25] | Plant response rating, Corn [4, 23] | Plant response rating, Corn [4, 24] | Corn plant response rating [4, 25] | Plant response rating, Bromegrass, Downy [5, 23] | Plant response rating, Bromegrass, Downy [5, 24] | Bromegrass, Downy plant response rating [5, 25] | Plant response rating, Foxtail, Green [8, 23] | Plant response rating, Oat, Wild [15, 23] | Plant response rating, Oat, Wild [15, 24] | Oat, Wild plant response rating [15, 25]
25: Plant response rating, Bromegrass, Downy [5, 19]
45: Plant response rating, Soybean [13, 23]
60: Plant response rating, Surinam Grass [1, 21] | Plant response rating, Johnsongrass [9, 19] | Plant response rating, Johnsongrass [9, 20] | Plant response rating, Morningglory [12, 20] | Plant response rating, Morningglory [12, 21] | Plant response rating, Soybean [13, 24] | Plant response rating, Oat, Wild [15, 21]
40: Plant response rating, Blackgrass [2, 21] | Plant response rating, Foxtail, Green [8, 19] | Plant response rating, Foxtail, Green [8, 20] | Plant response rating, Foxtail, Green [8, 24] | Plant response rating, Oat, Wild [15, 19]
95: Surinam Grass plant response rating [1, 25] | Plant response rating, Cocklebur [3, 18] | Cocklebur plant response rating [3, 25] | Foxtail, Giant plant response rating [6, 22] | Foxtail, Green plant response rating [8, 22] | Plant response rating, Crabgrass, Large [11, 21] | Plant response rating, Soybean [13, 20] | Plant response rating, Soybean [13, 21] | Plant response rating, Cupgrass, Woolly [16, 21] | Cupgrass, Woolly plant response rating [16, 22]
55: Plant response rating, Surinam Grass [1, 20]
75: Plant response rating, Surinam Grass [1, 24] | Bromegrass, Downy plant response rating [5, 22] | Plant response rating, Crabgrass, Large [11, 20] | Plant response rating, Velvetleaf [14, 19]
65: Plant response rating, Surinam Grass [1, 23]
90: Plant response rating, Cocklebur [3, 19] | Plant response rating, Foxtail, Giant [6, 21] | Foxtail, Giant plant response rating [6, 25] | Plant response rating, Foxtail, Green [8, 21] | Plant response rating, Johnsongrass [9, 18] | Johnsongrass plant response rating [9, 25] | Plant response rating, Crabgrass, Large [11, 23] | Morningglory plant response rating [12, 22] | Plant response rating, Velvetleaf [14, 20] | Plant response rating, Cupgrass, Woolly [16, 18] | Plant response rating, Nutsedge, Yellow [17, 18]
30: Plant response rating, Corn [4, 19] | Plant response rating, Foxtail, Giant [6, 23] | Plant response rating, Nutsedge, Yellow [17, 20] | Plant response rating, Nutsedge, Yellow [17, 21] | Plant response rating, Nutsedge, Yellow [17, 23]
50: Plant response rating, Surinam Grass [1, 19] | Blackgrass plant response rating [2, 22] | Plant response rating, Corn [4, 20] | Plant response rating, Bromegrass, Downy [5, 20] | Plant response rating, Morningglory [12, 19] | Plant response rating, Oat, Wild [15, 20] | Plant response rating, Nutsedge, Yellow [17, 24]
10: Plant response rating, Blackgrass [2, 18] | Plant response rating, Blackgrass [2, 20] | Plant response rating, Cocklebur [3, 23]
85: Plant response rating, Corn [4, 21] | Corn plant response rating [4, 22] | Plant response rating, Foxtail, Giant [6, 20] | Plant response rating, Foxtail, Giant [6, 24] | Plant response rating, Goosegrass [7, 19] | Plant response rating, Goosegrass [7, 20] | Plant response rating, Goosegrass [7, 21] | Plant response rating, Goosegrass [7, 23] | Plant response rating, Johnsongrass [9, 24] | Plant response rating, Soybean [13, 18] | Plant response rating, Soybean [13, 19] | Cupgrass, Woolly plant response rating [16, 25] | Nutsedge, Yellow plant response rating [17, 25]
5: Plant response rating, Blackgrass [2, 19] | Plant response rating, Corn [4, 18] | Plant response rating, Cupgrass, Woolly [16, 23]
20: Plant response rating, Bromegrass, Downy [5, 18] | Plant response rating, Johnsongrass [9, 23] | Plant response rating, Nutsedge, Yellow [17, 19]
100: Plant response rating, Surinam Grass [1, 18] | Cocklebur plant response rating [3, 22] | Plant response rating, Foxtail, Giant [6, 18] | Plant response rating, Goosegrass [7, 18] | Goosegrass plant response rating [7, 25] | Plant response rating, Foxtail, Green [8, 18] | Foxtail, Green plant response rating [8, 25] | Plant response rating, Kochia [10, 18] | Kochia plant response rating [10, 22] | Plant response rating, Kochia [10, 23] | Plant response rating, Kochia [10, 24] | Kochia plant response rating [10, 25] | Plant response rating, Crabgrass, Large [11, 18] | Crabgrass, Large plant response rating [11, 22] | Crabgrass, Large plant response rating [11, 25] | Plant response rating, Morningglory [12, 18] | Plant response rating, Morningglory [12, 23] | Plant response rating, Morningglory [12, 24] | Morningglory plant response rating [12, 25] | Soybean plant response rating [13, 22] | Plant response rating, Velvetleaf [14, 18] | Plant response rating, Velvetleaf [14, 24] | Velvetleaf plant response rating [14, 25]
70: Plant response rating, Bromegrass, Downy [5, 21] | Plant response rating, Foxtail, Giant [6, 19] | Plant response rating, Johnsongrass [9, 21] | Plant response rating, Kochia [10, 19] | Plant response rating, Kochia [10, 20] | Plant response rating, Crabgrass, Large [11, 19] | Plant response rating, Cupgrass, Woolly [16, 24] | Nutsedge, Yellow plant response rating [17, 22]
98: Plant response rating, Cocklebur [3, 20] | Plant response rating, Cocklebur [3, 21] | Goosegrass plant response rating [7, 22] | Plant response rating, Crabgrass, Large [11, 24] | Plant response rating, Velvetleaf [14, 21] | Velvetleaf plant response rating [14, 22] | Plant response rating, Velvetleaf [14, 23]
80: Surinam Grass plant response rating [1, 22] | Johnsongrass plant response rating [9, 22] | Plant response rating, Kochia [10, 21] | Soybean plant response rating [13, 25] | Plant response rating, Oat, Wild [15, 18] | Oat, Wild plant response rating [15, 22] | Plant response rating, Cupgrass, Woolly [16, 19] | Plant response rating, Cupgrass, Woolly [16, 20]
